# According to paper PMC5398698, “Uncovering the molecular and physiological processes of anticancer leads binding human serum albumin: A physical insight into drug efficacy” (PLoS ONE, 2017):
# Read-outs that look alike come from different tables or passages of the source.
# What was measured:
# [1] = target: T1, Human serum albumin (HSA) (Homo sapiens, UniProt P02768); assay: Steady-state fluorescence quenching of HSA by anticancer leads; type: binding; settings: for ΔG: temperature-dependent fluorescence quenching
# T1 construct: purchased Sigma-Aldrich A3782
# T1 sequence (P02768 25-609): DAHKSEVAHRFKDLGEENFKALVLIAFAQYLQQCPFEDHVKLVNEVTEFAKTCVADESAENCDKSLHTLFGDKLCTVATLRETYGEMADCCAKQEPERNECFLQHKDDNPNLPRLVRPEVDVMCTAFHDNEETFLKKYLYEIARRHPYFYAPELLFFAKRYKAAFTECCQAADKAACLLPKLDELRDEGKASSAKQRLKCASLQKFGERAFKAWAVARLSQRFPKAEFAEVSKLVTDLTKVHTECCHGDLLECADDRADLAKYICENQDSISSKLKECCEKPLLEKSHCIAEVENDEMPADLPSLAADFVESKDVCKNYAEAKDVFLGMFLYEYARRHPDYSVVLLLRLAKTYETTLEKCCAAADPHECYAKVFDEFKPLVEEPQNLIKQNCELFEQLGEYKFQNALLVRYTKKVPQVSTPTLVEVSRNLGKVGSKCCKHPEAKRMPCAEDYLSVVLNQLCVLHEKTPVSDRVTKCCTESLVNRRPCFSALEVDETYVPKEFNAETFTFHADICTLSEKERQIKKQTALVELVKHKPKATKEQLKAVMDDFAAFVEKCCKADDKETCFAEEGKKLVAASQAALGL
# Description: Steady-state fluorescence spectra were recorded on an Eclipse fluorescence spectrophotometer (Agilent Cary, USA) with a 1 cm path length quartz cuvette at 293 K and 298 K, respectively. Sample temperature was kept within ± 0.2 degree by recycled water throughout the experiment. The excitation and emission band passes were all set at 5 nm by keeping the excitation wavelength at 290 nm to achieve maximum fluorescence emission. The emission spectra was measured in the region of 305–450 nm, and the fluorescence intensity at peak position 340 nm was extracted for further analysis. HSA was diluted from stock solution with reaction buffer to a concentration of 10 μM for each quenching experiment. Titration was performed by successive addition of 1 mM anticancer leads into quartz cuvette, and the minor intensity decrease due to volume change was corrected by the control experiment.
# In Fluorescence quenching, the inner filter effect (IFE) is of importance due to its effect on the emission intensity. One of the biggest causes of the IFE is the re-absorption of the emitted light in the excitation and emission region. It is an important issue that these effects cause severe underestimation of the fluorescence intensity measured because the concentration of the quencher increases when a Stern-Volmer analysis is carried out, and therefore the ability of the quencher to absorb the emitted light will also increase.
# Where Aem and Aex represent the absorbance of small moecule at emission and excitation wavelength, respectively. F0 and Fc represent the observed fluorescence intensity and corrected fluorescence intensity, respectively.
# In an attempt to gain insight into the molecular mechanism of HSA association, we have determined the binding mechanism, binding constant, binding site, and the number of binding sites. […] (1) Where F and F0 is the steady state fluorescence intensity in the presence and absence of quencher, respectively; Kq, τ0 and [Q] is the quenching rate constant, the average lifetime of the molecule without quencher and the concentration of quencher, respectively.
# Modified Stern-Volmer plots are shown in Fig 3C and 3D, showing good linearity to modified Stern-Volmer equation: log[(F0−F)/F]=logKA+nlog[Q] (2)
# F0−F/F0=Bmax(KA[Q])^h/1+(KA[Q])^h+Pnsb×[Q] (3)
# Where F and F0 are the steady state fluorescence intensity in the presence and absence of quencher, respectively; [Q] is the concentration of quencher, Bmax is the maximum independent binding site classes, KA is the effective binding affinity; h is the Hill coefficient that describes the degree of ligand binding cooperativity and Pnsb is the nonspecific binding coefficient.
# Usually, the types of interaction forces between small molecules and macromolecules mainly include hydrogen bonds, van der Waals forces, electrostatic interactions and hydrophobic interactions. To estimate the binding mode, the thermodynamic parameters, ΔH, ΔS and ΔG are often considered. On the basis of the characteristic signs of the thermodynamic parameters, the interaction forces between small molecule and protein can be assigned to hydrophobic interaction (ΔH > 0, ΔS > 0), van der Waals force (ΔH < 0, ΔS < 0) and electrostatic attraction (ΔH < 0, ΔS > 0). The entropy and enthalpy can be considered constant at a constant temperture, which is regulated by the van’t Hoff equation: lnKA=−ΔH/RT+ΔS/R (4)
# [2] = target: T1, Human serum albumin (HSA); assay: Isothermal titration calorimetry (ITC) of leads binding HSA; settings: 310 K
# Description: The calorimetry measurement was carried out by isothermal titration calorimetry (ITC) (TA Instruments, USA) at 310 K. HSA in different reaction buffers (0.01 M PBS and 0.025 M MES) were extensively dialyzed before titration. […] The titration was afterward started with continuously stirring at 250 rpm. The raw heat rate data were integrated under injection peaks to obtain the reaction heat of each injection after substracting dilution heat which was measured by injecting with a blank control titration. The calculated heat changes were analyzed using the NANOanalyze software (TA Instruments, USA) and replotted with Origin 8.5. The free energy change (ΔG), enthalpy change (ΔH) and entropy change (ΔS) were calculated according to the thermodynamic formulas below: ΔG=−RTlnKA=ΔH−TΔS
# Where KA is the association constant at the absolute temperature T (310 K) and R represents the gas constant (8.3151 J mol^-1K^-1).
# [3] = target: T1, Human serum albumin (HSA); assay: SPR binding kinetic measurement on immobilized HSA
# Description: Binding kinetic measurement was performed using Reichert 4-chanel SPR instrument Reichert4SPR (Reichert, USA). HSA was immobilized on carboxymethyl dextran chip at the condition of 0.1 mg/mL protein in 10 mM sodium acetate (pH 4.5). The final density is about 12,000 RU and flow rate is 20 μl/min. During immobilizing, the sensor chip was preconditioned with 3-min injection of double diluted water. Thereafter, the first flow cell surface was activated through using 0.05 M N-hydroxysuccinimide (NHS)/0.2 M 1-ethyl-3-(3-dimethylaminopropyl)carbodiimide hydrochloride (EDC) for 7 min, and then functionalized by injecting a solution of HSA (0.1 mg/mL) in 10 mM sodium acetate buffer (pH 4.5) for 20 min. Finally, unreacted NHS groups were deactivated with 1 M ethanolamine (pH 8.5) for 10 min. Simultaneously, the control flow cell was treated using the same conditions as described above. […] Final data obtained were corrected for instrumental and bulk artifacts by double referencing to a control sensor chip surface and blank buffer injection. The binding responses were concentration-dependent and dissociation constant KD values were derived from 1:1 kinetic model as well as steady state analysis using TraceDrawer software (Reichert, USA).
# [4] = target: T1, Human serum albumin (HSA); assay: Fluorescence resonance energy transfer (FRET) distance HSA W214 to lead; type: binding; settings: Forster theory; k^2 = 2/3, N = 1.36, Φ = 0.15
# Text: Fluorescence resonance energy transfer (FRET) occurs when the UV absorption spectrum of small molecule (acceptor) overlaps with the fluorescence emission spectrum of fluoreophore (donor). The fluorescence emission peak of HSA mostly locates in the range of the UV-vis absorption spectra of the two anticancer leads (Fig 5A and 5B). This indicates the possibility of FRET occuring between HSA and anticancer leads. According to Forster’s non-radiative energy transfer theory, the distance r between donor W214 of HSA and the acceptor of small molecule is determined by the relationship below: E=1−F/F0=R0^6/R0^6+r^6 (5) where E is the energy transfer efficiency; F and F0 are the fluorescence intensity in the presence and absence of quencher. […] In this case here, k^2 = 2/3 is for random orientation as in fluid solution, N = 1.36, Φ = 0.15, and J is calculated as: J=∑F(λ)ε(λ)λ^4Δλ/∑F(λ)Δλ (7) where F(λ) is the fluorescence intensity of the fluorescence donor of wavelength λ; and ε(λ) is the molar absorption coefficient calculated by Lambert-Beer relationship ε(λ) = A(λ)/cl at wavelength λ. The integration step was chosen to be the scanning data interval of 1 nm.
# plasma proteins = assay: Estimate of fraction bound to plasma proteins from association constants; parameters: species or system human; settings: estimated with Kd / ([P]f + Kd)
# Text: The function of HSA as drug carrier may facilitate drug access to the action site and be related to drug safety issues. Application of HSA on drug delivery may therefore be important in anticancer therapy, which has been taken into account in estimating therapeutic outcomes, particularly for highly bound compounds (defined as < 5% free drug compounds in blood). The free to bound drug rates can be estimated by using the formula Kd / ([P]f + Kd) through approximating the free protein concentration as [P]f = [P]T − [L]T [41]. […] Therefore, the affinity determines the steady state concentration of unbound or exposed drug in the plasma, maintaining a concentration gradient between the intestinal lumen and plasma, which is considered as the only fraction exerting the bioactivity. […] Moreover, both hepatic uptake and glomerular filtration are directly proportional to the free drug fraction presented in the plasma while drugs are modulated by the affinity difference of the plasma and tissue proteins. If a drug is highly bound to HSA and has a high extraction raio, the binding promotes metabolism by transporting the drug to liver, resulting in the decrease of free drug fraction. On the other hand, if a drug has a low liver extraction ratio, metabolism will be decreased by high HSA binding. […]
compound,measurement,setting,value
CC(=O)OCCC(C)CCC=C(C)C (centres unmarked) [NSC48693],"n (reaction stoichiometric number, modified Stern-Volmer)",[1]; 293 K,0.91 ± 0.013
same,binding constant KA (modified Stern-Volmer),"[1]; 293 K, fit to Eq (2)",3.31 ± 0.16 × 10^4 M^-1
same,Hill coefficient h (nonlinear regression fitting),"[1]; 293 K, one class of binding sites",~1.0
same,ΔG,[1]; T 293 K,-5.614 kcal/mol
same,ΔG,[1]; T 298 K,-5.636 kcal/mol
same,n obtained by Hill equation,[1]; as quoted in the ITC comparison,0.91
same,quenching rate constant Kq (Stern-Volmer),"[1]; fluorescence lifetime of tryptophan in HSA around 10^-8 s, 10 μM HSA",1.36 ± 0.016 × 10^12 M^-1s^-1
same,ΔH,"[1]; van't Hoff, 293 K and 298 K",-4.548 kcal/mol
same,ΔS,"[1]; van't Hoff, 293 K and 298 K",15.27 J mol^-1 K^-1
same,stoichiometry number,[2],0.94 ± 0.06
same,ΔG,[2],-6.898 kcal/mol
same,ΔH,[2],-5.581 ± 0.605 kcal/mol
same,ΔS,[2],17.81 J mol^-1 K^-1
same,binding constant (KA),[2]; one-site independent model,7.29 ± 2.68 × 10^4 M^-1
same,dissociation rate slower than that of NSC290956,[3],approximately 5 fold
same,kinetic behavior,[3]; SPR sensorgram shape,fast-on and slow-off
same,Ka (association rate constant),"[3]; SPR, 1:1 kinetic model",2410 M⁻¹ s⁻¹
same,koff (dissociation rate constant),"[3]; SPR, 1:1 kinetic model",0.0333 s⁻¹
same,Kd,"[3]; SPR, 1:1 kinetic model, read-out: KD (dividing kinetic parameters, 1:1 model)",13.8 µM
same,Kd,"[3]; SPR, steady-state phase data, read-out: Steady State KD",12.3 µM
same,binding affinity to HSA larger than that of NSC290956,[3]; as measured with different experimental methods,3~8 fold
same,donor-acceptor distance r between HSA and lead,[4],3.65 nm
same,compound bound to plasma proteins,plasma proteins,over 98%
